Biological target: T1, recombinant His-tag Y220C p53 DBD protein (Homo sapiens, UniProt P04637, Y220C)
T1 construct: recombinant His-tag Y220C p53 DBD protein (amino acids #˜94-312)
Assay: In vitro DNA binding activity assay (TR-FRET): binding of His-tag Y220C p53 DBD to biotin-labeled consensus DNA
Format: biochemical
Settings: SC150 = concentration to increase DNA binding by […], His-tag Y220C p53 DBD, biotin-labeled consensus DNA
Protocol: DNA binding activity of the compounds was measured using a TR-FRET (Time-Resolved Fluorescence Resonance Energy Transfer) assay in which recombinant His-tag Y220C p53 DBD protein binds to biotin-labeled consensus DNA. Binding of recombinant His-tag Y220C p53 DBD protein and biotin-labeled consensus DNA was registered by the FRET (fluorescence resonance energy transfer) between allophycocyanin (APC) conjugated anti-His tag antibody and Europium-(Eu) conjugated Streptavidin.
The compounds of TABLES 1-9 (2 mM stock in dimethylsulfoxide) were diluted 3-fold in series in dimethylsulfoxide. 1.2 μL of a compound solution was added to each well of 384-well polypropylene black plates (NUNC). Thirty μL per well of 181 nM recombinant His-tag Y220C p53 DBD protein (amino acids #˜94-312; SEQ ID NO: 1) and 6.1 nM of APC conjugated anti-His tag antibody (Columbia Biosciences) in ice-cold Assay Buffer 1 (50 mM Tris-HCl, pH 7.4, 75 mM KCl, 0.75 mM DTT and 0.2 mg/ml, BSA) were added. As a background control. 30 μL of Assay Buffer 1 containing 6.1 nM of APC anti-His antibody (No Y220C protein) was also added into a second set of serially diluted compound plates. The samples were spun by centrifuge at 1,200 rpm (Eppendorf 5810R Plate centrifuge) for 1 minute and incubated at room temperature (20° C.) for 15 min. The samples were then further incubated at either 27° C. or 29° C. for 60 min. […] The samples were spun by centrifuge at 1,200 rpm for 1 min and incubated at room temperature (20° C.) for 20 min. Assay signals were monitored by reading excitation at 340 nm, and emission fluorescence at 615 nm and 665 nm on an Envision® reader. Normalized TR-FRET (time-resolved fluorescence resonance energy transfer) assay signal (Rn) was calculated by the formula: Rn=[(A−Ba−C×(D−Bd))/(D−Bd)]×(D−Bd) Wherein: • A is the fluorescence intensity of the sample at 665 nm; • D is the fluorescence intensity of the sample at 615 nm; • Ba and Bd are plate backgrounds at 665 nm and 615 nm, respectively; and • Dc is the fluorescence intensity of 0.67 nM Eu-SA in the assay buffer at 615 nm.
The cross-talk factor (C) was determined by the following formula: C=(Ac−Ba)/(Dc−Bd) wherein Ac is the fluorescence intensity of 0.67 nM Europium (Eu) conjugated Streptavidin in the assay buffer at 665 nm.

| Y220C SC150 (μM) | Compound |
| --- | --- |
| ** (** = 0.1 μM ≤ SC150 < 0.5 μM) | CN1CC[C@H](Nc2cccc3c2cc(-c2nnc(CNC(=O)c4ccccc4)o2)n3CC(F)(F)F)[C@H](F)C1 (racemic) [Compound 118B, (+/−)-N-{[5-(4-{[(3R,4S)-3-fluoro-1-methylpiperidin-4-yl]amino}-1-(2,2,2-trifluoroethyl)-1H-indol-2-yl)-1,3,4-oxadiazol-2-yl]methyl}benzamide] |
| ** (** = 0.1 μM ≤ SC150 < 0.5 μM) | COc1cccc(C(=O)NCc2nnc(-c3cc4c(N[C@H]5CCN(C)C[C@H]5F)cccc4n3CC(F)(F)F)o2)c1 (racemic) [Compound 119B, (+/−)-N-{[5-(4-{[(3R,4S)-3-fluoro-1-methylpiperidin-4-yl]amino}-1-(2,2,2-trifluoroethyl)-1H-indol-2-yl)-1,3,4-oxadiazol-2-yl]methyl}-3-methoxybenzamide] |
| ** (** = 0.1 μM ≤ SC150 < 0.5 μM) | CN1CC[C@H](Nc2cccc3c2cc(-c2nnc(CNC(=O)c4cccs4)o2)n3CC(F)(F)F)[C@H](F)C1 (racemic) [Compound 120B, (+/−)-N-{[5-(4-{[(3R, 4S)-3-fluoro-1-methylpiperidin-4-yl]amino}-1-(2,2,2-trifluoroethyl)-1H-indol-2-yl)-1,3,4-oxadiazol-2-yl]methyl}thiophene-2-carboxamide] |
| **** (**** = 1 μM ≤ SC150 < 10 μM) | CN1CC[C@H](Nc2cccc3c2cc(-c2nnc(CNCC4CC4)o2)n3CC(F)(F)F)[C@H](F)C1 (racemic) [Compound 121B, (+/−)-2-(5-{[(cyclopropylmethyl)amino]methyl}-1,3,4-oxadiazol-2-yl)-N-[(3R,4S)-3-fluoro-1-methylpiperidin-4-yl]-1-(2,2,2-trifluoroethyl)-1H-indol-4-amine] |
| ** (** = 0.1 μM ≤ SC150 < 0.5 μM) | CN1CC[C@H](Nc2cccc3c2cc(-c2nnc(CNc4cccc(S(C)(=O)=O)c4)o2)n3CC(F)(F)F)[C@H](F)C1 (racemic) [Compound 122B, (+/−)-N-[(3R,4S)-3-fluoro-1-methylpiperidin-4-yl]-2-(5-{[(3-methanesulfonylphenyl)amino]methyl}-1,3,4-oxadiazol-2-yl)-1-(2,2,2-trifluoroethyl)-1H-indol-4-amine] |
| ** (** = 0.1 μM ≤ SC150 < 0.5 μM) | COc1cc(S(C)(=O)=O)ccc1NCc1nnc(-c2cc3c(N[C@H]4CCN(C)C[C@@H]4F)cccc3n2CC(F)(F)F)o1 (racemic) [Compound 123B, (+/−)-N-[(3R,4R)-3-fluoro-1-methylpiperidin-4-yl]-2-(5-{[(4-methanesulfonyl-2-methoxyphenyl)amino]methyl}-1,3,4-oxadiazol-2-yl)-1-(2,2,2-trifluoroethyl)-1H-indol-4-amine] |
| * (* = 0 μM ≤ SC150 < 0.1 μM) | CN1CCC(Nc2cccc3c2cc(-c2noc(CNC(=O)[C@@H]4C[C@H]4F)n2)n3CC(F)(F)F)CC1 (racemic) [Compound 145B, (1S,2R)-2-fluoro-N-[(3-{4-[(1-methylpiperidin-4-yl)amino]-1-(2,2,2-trifluoroethyl)-1H-indol-2-yl}-1,2,4-oxadiazol-5-yl)methyl]cyclopropane-1-carboxamide] |
| * (* = 0 μM ≤ SC150 < 0.1 μM) | CN1CCC(Nc2cccc3c2cc(-c2noc(CNC(=O)[C@@H]4C[C@@H]4F)n2)n3CC(F)(F)F)CC1 (racemic) [Compound 147B, (1S,2S)-2-fluoro-N-[(3-{4-[(1-methylpiperidin-4-yl)amino]-1-(2,2,2-trifluoroethyl)-1H-indol-2-yl}-1,2,4-oxadiazol-5-yl)methyl]cyclopropane-1-carboxamide] |
| * (* = 0 μM ≤ SC150 < 0.1 μM) | CN1CCC(Nc2cccc3c2cc(-c2noc(CNC(=O)[C@@H]4C[C@H]4c4ccccc4)n2)n3CC(F)(F)F)CC1 (racemic) [Compound 156B, (+/−)-(1R,2R)—N-[(3-{4-[(1-methylpiperidin-4-yl)amino]-1-(2,2,2-trifluoroethyl)-1H-indol-2-yl}-1,2,4-oxadiazol-5-yl)methyl]-2-phenylcyclopropane-1-carboxamide] |
| * (* = 0 μM ≤ SC150 < 0.1 μM) | C[C@@H]1C[C@H]1C(=O)NCc1nc(-c2cc3c(NC4CCN(C)CC4)cccc3n2CC(F)(F)F)no1 (racemic) [Compound 157B, (+/−)-(1R,2R)-2-methyl-N-[(3-{4-[(1-methylpiperidin-4-yl)amino]-1-(2,2,2-trifluoroethyl)-1H-indol-2-yl}-1,2,4-oxadiazol-5-yl)methyl]cyclopropane-1-carboxamide] |
| * (* = 0 μM ≤ SC150 < 0.1 μM) | C[C@H]1C[C@H]1C(=O)NCc1nc(-c2cc3c(NC4CCN(C)CC4)cccc3n2CC(F)(F)F)no1 (racemic) [Compound 158B, (+/−)-(1R,2S)-2-methyl-N-[(3-{4-[(1-methylpiperidin-4-yl)amino]-1-(2,2,2-trifluoroethyl)-1H-indol-2-yl}-1,2,4-oxadiazol-5-yl)methyl]cyclopropane-1-carboxamide] |
| * (* = 0 μM ≤ SC150 < 0.1 μM) | O=C(NCc1nc(-c2cc3c(NC4CCNC4)cccc3n2CC(F)(F)F)no1)C1CC1 (racemic) [Compound 167B, (+/−)-N-[(3-{4-[(pyrrolidin-3-yl)amino]-1-(2,2,2-trifluoroethyl)-1H-indol-2-yl}-1,2,4-oxadiazol-5-yl)methyl]cyclopropanecarboxamide] |
| * (* = 0 μM ≤ SC150 < 0.1 μM) | CN1CCC(Nc2cccc3c2cc(-c2noc(CNC(=O)C4CC4)n2)n3CC(F)(F)F)C1 (racemic) [Compound 169B, (+/−)-N-[(3-{4-[(1-methylpyrrolidin-3-yl)amino]-1-(2,2,2-trifluoroethyl)-1H-indol-2-yl}-1,2,4-oxadiazol-5-yl)methyl]cyclopropanecarboxamide] |
| * (* = 0 μM ≤ SC150 < 0.1 μM) | CN1CC[C@@H](Nc2cccc3c2cc(-c2noc(CNC(=O)C4CC4)n2)n3CC(F)(F)F)[C@@H](F)C1 (racemic) [Compound 171B, (+/−)-N-{[3-(4-{[(3R,4S)-3-fluoro-1-methylpiperidin-4-yl]amino}-1-(2,2,2-trifluoroethyl)-1H-indol-2-yl)-1,2,4-oxadiazol-5-yl]methyl}cyclopropanecarboxamide] |
| * (* = 0 μM ≤ SC150 < 0.1 μM) | CN1CC[C@@H](Nc2cccc3c2cc(-c2noc(CNC(=O)c4ccccc4)n2)n3CC(F)(F)F)[C@@H](F)C1 (racemic) [Compound 172B, (+/−)-N-{[3-(4-{[(3R,4S)-3-fluoro-1-methylpiperidin-4-yl]amino}-1-(2,2,2-trifluoroethyl)-1H-indol-2-yl)-1,2,4-oxadiazol-5-yl]methyl}benzamide] |
| * (* = 0 μM ≤ SC150 < 0.1 μM) | CN1CC[C@@H](Nc2cccc3c2cc(-c2noc(CNC(=O)c4cccs4)n2)n3CC(F)(F)F)[C@@H](F)C1 (racemic) [Compound 175B, (+/−)-N-{[3-(4-{[(3R,4S)-3-fluoro-1-methylpiperidin-4-yl]amino}-1-(2,2,2-trifluoroethyl)-1H-indol-2-yl)-1,2,4-oxadiazol-5-yl]methyl}thiophene-2-carboxamide] |
| * (* = 0 μM ≤ SC150 < 0.1 μM) | CN1CC[C@@H](Nc2cccc3c2cc(-c2noc(CNC(=O)c4ccsc4)n2)n3CC(F)(F)F)[C@@H](F)C1 (racemic) [Compound 176B, (+/−)-N-{[3-(4-{[(3R,4S)-3-fluoro-1-methylpiperidin-4-yl]amino}-1-(2,2,2-trifluoroethyl)-1H-indol-2-yl)-1,2,4-oxadiazol-5-yl]methyl}thiophene-3-carboxamide] |
| * (* = 0 μM ≤ SC150 < 0.1 μM) | CN1CC[C@@H](Nc2cccc3c2cc(-c2noc(CNc4ccc(S(C)(=O)=O)cc4)n2)n3CC(F)(F)F)[C@@H](F)C1 (racemic) [Compound 177B, (+/−)-N-[(3R,4S)-3-fluoro-1-methylpiperidin-4-yl]-2-(5-{[(4-methanesulfonylphenyl)amino]methyl}-1,2,4-oxadiazol-3-yl)-1-(2,2,2-trifluoroethyl)-1H-indol-4-amine] |
| * (* = 0 μM ≤ SC150 < 0.1 μM) | CCn1ccc(C(=O)NCc2nc(-c3cc4c(N[C@@H]5CCN(C)C[C@@H]5F)cccc4n3CC(F)(F)F)no2)c1 (racemic) [Compound 179B, (+/−)-1-ethyl-N-{[3-(4-{[(3R,4S)-3-fluoro-1-methylpiperidin-4-yl]amino}-1-(2,2,2-trifluoroethyl)-1H-indol-2-yl)-1,2,4-oxadiazol-5-yl]methyl}-1H-pyrrole-3-carboxamide] |

Source: patent publication US11807644B2 (PMV Pharmaceuticals, Inc., priority 2020, dated 2023)
